In the supplement of paper PMC10307832:

Assays:
Experiment in all cases: relative viability (nuclei count vs DMSO), 5 days (fraction); higher = more cells survive
JZL-184 = compound: C1CN(CCC1C(C2=CC3=C(C=C2)OCO3)(C4=CC5=C(C=C4)OCO5)O)C(=O)OC6=CC=C(C=C6)[N+](=O)[O-] [JZL-184]
Summary of the method: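 A plate was accepted only when its control CV was below 25% and the cells had doubled at least once. Viability is defined from nuclear counts as treated wells divided by vehicle wells, with the median taken across plates. That median covers lung cancer cell lines grown in 1536-well plates, dosed by pinning at five √10-spaced library-drug concentrations, and counted in MetaXpress from 4× Hoechst images after 5 days.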

JZL-184 + Bortezomib = compound: C1CN(CCC1C(C2=CC3=C(C=C2)OCO3)(C4=CC5=C(C=C4)OCO5)O)C(=O)OC6=CC=C(C=C6)[N+](=O)[O-] [JZL-184] + CC(C)C[C@H](NC(=O)[C@H](Cc1ccccc1)NC(=O)c1cnccn1)B(O)O [Bortezomib] (partner 0.002 µM)
Summary of the method: (§1)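 One day after seeding in 1536-well plates, lung cancer cell lines were dosed by pin tool. Dosing was either single-drug or a fixed anchor-drug dose plus five library-drug doses (not always all listed) in √10 steps. After 5 days, nuclei were stained in one fix-and-stain step and counted on 4× images, and relative viability is the nuclei count of treated wells over that of vehicle wells, given as the median of duplicate plates.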

JZL-184 + Pictilisib = compound: C1CN(CCC1C(C2=CC3=C(C=C2)OCO3)(C4=CC5=C(C=C4)OCO5)O)C(=O)OC6=CC=C(C=C6)[N+](=O)[O-] [JZL-184] + CS(=O)(=O)N1CCN(Cc2cc3nc(-c4cccc5[nH]ncc45)nc(N4CCOCC4)c3s2)CC1 [Pictilisib] (partner 1 µM)
Summary of the method: as §1

JZL-184 + Navitoclax = compound: C1CN(CCC1C(C2=CC3=C(C=C2)OCO3)(C4=CC5=C(C=C4)OCO5)O)C(=O)OC6=CC=C(C=C6)[N+](=O)[O-] [JZL-184] + CC1(C)CCC(c2ccc(Cl)cc2)=C(CN2CCN(c3ccc(C(=O)NS(=O)(=O)c4ccc(N[C@H](CCN5CCOCC5)CSc5ccccc5)c(S(=O)(=O)C(F)(F)F)c4)cc3)CC2)C1 [Navitoclax] (partner 0.5 µM)
Summary of the method: as §1

JZL-184 + Foretinib = compound: C1CN(CCC1C(C2=CC3=C(C=C2)OCO3)(C4=CC5=C(C=C4)OCO5)O)C(=O)OC6=CC=C(C=C6)[N+](=O)[O-] [JZL-184] + COc1cc2c(Oc3ccc(NC(=O)C4(C(=O)Nc5ccc(F)cc5)CC4)cc3F)ccnc2cc1OCCCN1CCOCC1 [Foretinib] (partner 0.25 µM)
Summary of the method: as §1

JZL-184 + Olaparib = compound: C1CN(CCC1C(C2=CC3=C(C=C2)OCO3)(C4=CC5=C(C=C4)OCO5)O)C(=O)OC6=CC=C(C=C6)[N+](=O)[O-] [JZL-184] + O=C(c1cc(Cc2n[nH]c(=O)c3ccccc23)ccc1F)N1CCN(C(=O)C2CC2)CC1 [Olaparib] (partner 8 µM)
Summary of the method: as §1

JZL-184 + Lapatinib = compound: C1CN(CCC1C(C2=CC3=C(C=C2)OCO3)(C4=CC5=C(C=C4)OCO5)O)C(=O)OC6=CC=C(C=C6)[N+](=O)[O-] [JZL-184] + CS(=O)(=O)CCNCc1ccc(-c2ccc3ncnc(Nc4ccc(OCc5cccc(F)c5)c(Cl)c4)c3c2)o1 [Lapatinib] (partner 2 µM)
Summary of the method: as §1

JZL-184 + Crizotinib = compound: C1CN(CCC1C(C2=CC3=C(C=C2)OCO3)(C4=CC5=C(C=C4)OCO5)O)C(=O)OC6=CC=C(C=C6)[N+](=O)[O-] [JZL-184] + C[C@@H](Oc1cc(-c2cnn(C3CCNCC3)c2)cnc1N)c1c(Cl)ccc(F)c1Cl [Crizotinib] (partner 1 µM)
Summary of the method: as §1

JZL-184 + Linsitinib = compound: C1CN(CCC1C(C2=CC3=C(C=C2)OCO3)(C4=CC5=C(C=C4)OCO5)O)C(=O)OC6=CC=C(C=C6)[N+](=O)[O-] [JZL-184] + C[C@]1(O)C[C@@H](c2nc(-c3ccc4ccc(-c5ccccc5)nc4c3)c3c(N)nccn32)C1 [Linsitinib] (partner 1 µM)
Summary of the method: as §1

JZL-184 + Alpelisib = compound: C1CN(CCC1C(C2=CC3=C(C=C2)OCO3)(C4=CC5=C(C=C4)OCO5)O)C(=O)OC6=CC=C(C=C6)[N+](=O)[O-] [JZL-184] + Cc1nc(NC(=O)N2CCC[C@H]2C(N)=O)sc1-c1ccnc(C(C)(C)C(F)(F)F)c1 [Alpelisib] (partner 2 µM)
Summary of the method: as §1

NCI-H1299
relative viability (JZL-184; 0.04 µM): 1.06 | relative viability (JZL-184; 0.4 µM): 1 | relative viability (JZL-184; 1.265 µM): 1.05 | relative viability (JZL-184; 4 µM): 0.977 | relative viability (JZL-184 + Bortezomib; first compound 0.04 µM): 1.04 | relative viability (JZL-184 + Bortezomib; first compound 0.4 µM): 0.997 | relative viability (JZL-184 + Bortezomib; first compound 1.265 µM): 1.04 | relative viability (JZL-184 + Bortezomib; first compound 4 µM): 0.979 | relative viability (JZL-184 + Pictilisib; first compound 0.04 µM): 0.922 | relative viability (JZL-184 + Pictilisib; first compound 0.4 µM): 0.82 | relative viability (JZL-184 + Pictilisib; first compound 1.265 µM): 0.779 | relative viability (JZL-184 + Pictilisib; first compound 4 µM): 0.655 | relative viability (JZL-184 + Navitoclax; first compound 0.04 µM): 1.06 | relative viability (JZL-184 + Navitoclax; first compound 0.4 µM): 1.05 | relative viability (JZL-184 + Navitoclax; first compound 1.265 µM): 1.06 | relative viability (JZL-184 + Navitoclax; first compound 4 µM): 1.05 | relative viability (JZL-184 + Foretinib; first compound 0.04 µM): 1.11 | relative viability (JZL-184 + Foretinib; first compound 0.4 µM): 1.06 | relative viability (JZL-184 + Foretinib; first compound 1.265 µM): 1.14 | relative viability (JZL-184 + Foretinib; first compound 4 µM): 1.04 | relative viability (JZL-184 + Olaparib; first compound 0.04 µM): 1.01 | relative viability (JZL-184 + Olaparib; first compound 0.4 µM): 0.937 | relative viability (JZL-184 + Olaparib; first compound 1.265 µM): 0.936 | relative viability (JZL-184 + Olaparib; first compound 4 µM): 0.911 | relative viability (JZL-184 + Lapatinib; first compound 0.04 µM): 0.954 | relative viability (JZL-184 + Lapatinib; first compound 0.4 µM): 0.924 | relative viability (JZL-184 + Lapatinib; first compound 1.265 µM): 0.969 | relative viability (JZL-184 + Lapatinib; first compound 4 µM): 0.912 | relative viability (JZL-184 + Crizotinib; first compound 0.04 µM): 0.982 | relative viability (JZL-184 + Crizotinib; first compound 0.4 µM): 0.944 | relative viability (JZL-184 + Crizotinib; first compound 1.265 µM): 0.915 | relative viability (JZL-184 + Crizotinib; first compound 4 µM): 0.884 | relative viability (JZL-184 + Linsitinib; first compound 0.04 µM): 1.16 | relative viability (JZL-184 + Linsitinib; first compound 0.4 µM): 1.01 | relative viability (JZL-184 + Linsitinib; first compound 1.265 µM): 0.95 | relative viability (JZL-184 + Linsitinib; first compound 4 µM): 0.974 | relative viability (JZL-184 + Alpelisib; first compound 0.04 µM): 1.14 | relative viability (JZL-184 + Alpelisib; first compound 0.4 µM): 1.01 | relative viability (JZL-184 + Alpelisib; first compound 1.265 µM): 1.08 | relative viability (JZL-184 + Alpelisib; first compound 4 µM): 1.04
